Assay results from patent EP0871454B1, “PHOSPHOROUS-CONTAINING CYSTEINE AND SERINE PROTEASE INHIBITORS” (CEPHALON, INC., priority 1995, dated 1997).

Molecular target: T1, Calpain I (Homo sapiens, UniProt P07384)
T1 construct: made in house
T1 sequence (P07384 1-714): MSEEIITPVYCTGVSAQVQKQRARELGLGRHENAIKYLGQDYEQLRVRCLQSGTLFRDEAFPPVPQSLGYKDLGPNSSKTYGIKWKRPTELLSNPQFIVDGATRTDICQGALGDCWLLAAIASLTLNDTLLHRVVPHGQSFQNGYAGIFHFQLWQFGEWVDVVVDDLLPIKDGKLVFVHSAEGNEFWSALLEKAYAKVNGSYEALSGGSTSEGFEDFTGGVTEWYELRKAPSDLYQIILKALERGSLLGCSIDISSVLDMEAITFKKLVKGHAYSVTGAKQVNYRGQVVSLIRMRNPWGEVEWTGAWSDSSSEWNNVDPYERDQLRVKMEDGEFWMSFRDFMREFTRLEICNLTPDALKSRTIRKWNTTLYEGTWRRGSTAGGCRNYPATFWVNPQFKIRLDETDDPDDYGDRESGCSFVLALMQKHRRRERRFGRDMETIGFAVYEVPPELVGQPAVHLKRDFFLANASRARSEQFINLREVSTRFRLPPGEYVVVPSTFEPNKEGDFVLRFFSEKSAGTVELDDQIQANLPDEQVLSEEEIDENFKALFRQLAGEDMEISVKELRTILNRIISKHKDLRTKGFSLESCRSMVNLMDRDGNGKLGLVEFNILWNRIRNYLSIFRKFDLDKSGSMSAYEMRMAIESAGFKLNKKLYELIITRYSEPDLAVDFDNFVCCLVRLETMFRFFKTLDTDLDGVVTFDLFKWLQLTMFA
T1 sequence (P04632 1-268 partner): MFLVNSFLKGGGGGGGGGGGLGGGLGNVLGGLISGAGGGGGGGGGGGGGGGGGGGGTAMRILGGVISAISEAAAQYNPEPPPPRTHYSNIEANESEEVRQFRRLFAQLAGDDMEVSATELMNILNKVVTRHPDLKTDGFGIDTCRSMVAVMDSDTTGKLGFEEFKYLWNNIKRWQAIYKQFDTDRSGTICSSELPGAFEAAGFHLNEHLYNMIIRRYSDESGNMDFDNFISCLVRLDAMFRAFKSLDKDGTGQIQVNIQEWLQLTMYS
Assay: Inhibition and rate of inactivation of calpain I activity (Succ-Leu-Tyr-MNA substrate hydrolysis)
Format: biochemical
Conditions: for kobs/I: apparent second order rate constant of inactivation, pseudo-first order conditions, compounds tested at 0.1 µM, mean of three or more single cuvette analyses
Description: Inhibition and Rate of Inactivation of Cysteine Protease Activity
To evaluate inhibitory activity, stock solutions (40 times concentrated) of each compound to be tested were prepared in 100% anhydrous DMSO and 5 µl of each inhibitor preparation were aliquoted into each of three wells of a 96 well plate. Calpain I, prepared by a modification of the method of W. J. Lee et al. (Biochem. Internatl. 22: 163-171 (1990)), was diluted into assay buffer (i.e., 50mM Tris, 50mM NaCl, 1mM EDTA, 1mM EGTA, and 5mM β-mercaptoethanol, pH 7.5 including 0.2mM Succ-Leu-Tyr-MNA) and 175 µl aliquoted into the same wells containing the independent inhibitor stocks as well as to positive control wells containing 5 µl DMSO, but no compound. To start the reaction, 20 µl of 50 mM CaCl2 in assay buffer was added to all wells of the plate, excepting three, which were used as background signal baseline controls. Substrate hydrolysis was monitored every 5 minutes for a total of 30 minutes. Substrate hydrolysis in the absence of inhibitor was linear for up to 15 minutes.
Inhibition of calpain I activity was calculated as the percent decrease in the rate of substrate hydrolysis in the presence of inhibitor (vi) relative to the rate in its absence (vo). Comparison between vo and vi was made within the linear range for substrate hydrolysis. […] Apparent second order rate constants were determined from analysis of reaction progress curves under pseudo-first order conditions. Each determination represents the mean of three or more independent single cuvette analyses continually monitored via a Perkin-Elmer LS50B spectrofluorimeter.
Values for kobs/I are given in Table I for compounds tested at 0.1 µM. [drawing 8]

Row | Compound | % Inhib. @ 0.1 uM (0.1 uM compound, percent decrease in rate of substrate hydrolysis relative to no inhibitor) [%] | kobs/I [M⁻¹ s⁻¹]
1 | CC(C)C[C@H](NC(=O)OC(C)(C)C)C(=O)N[C@@H](Cc1ccccc1)C(=O)COP(=O)(OCc1ccccc1)OCc1ccccc1 [Example 35, Dibenzyl (3S)-[3-[(N-t-Butoxycarbonyl-L-leucyl)amino]-2-oxo-4-phenylbutyl]phosphate] | – | 242000
2 | CC(C)C[C@H](NS(=O)(=O)N1CCOCC1)C(=O)N[C@@H](Cc1ccccc1)C(=O)COP(=O)(OCc1ccccc1)OCc1ccccc1 [Example 36, Dibenzyl (3S)-[3-[(N-morpholinylsulfonyl-L-leucyl)amino]-2-oxo-4-phenylbutyl] phosphate] | – | 182000
3 | CC(C)CC(NC(=O)C12OC3COC(C)(C)OC3C1OC(C)(C)O2)C(=O)NC(Cc1ccccc1)C(=O)COP(=O)(OCc1ccccc1)OCc1ccccc1 [Example 37, Dibenzyl (3S)-[3-[(N-diisopropylidine-2-keto-L-gulonyl-L-leucyl)amino]-2-oxo-4-phenylbutyl] phosphate] | – | 113000
4 | CC(C)C[C@H](NC(=O)C12OC(CO)C(O)C1OC(C)(C)O2)C(=O)N[C@@H](Cc1ccccc1)C(=O)COP(=O)(OCc1ccccc1)OCc1ccccc1 (stereo partly drawn) [Example 38, Dibenzyl (3S)-[3-[(N-monoisopropylidine-2-keto-L-gulonyl-L-leucyl)amino]-2-oxo-4-phenylbutyl] phosphate)] | – | 116000
5 | CC(C)C[C@H](NC(=O)OCc1ccccc1)C(=O)N[C@@H](Cc1ccccc1)C(=O)COP1(=O)OCC(OCc2ccccc2)CO1 (some centres unmarked) [Example 47] | 47 | –
